Activity calls are given as the source filed them. The calls are words filed in the database; no cut-off is given here.
What was measured:
[1] = system: BJAB; assay: Antiproliferative activity against human BJAB cells after 48 hrs; assay type: functional
[2] = system: Leukemia cell; assay: Induction of apoptosis in ALL cells at 100 uM after 60 hrs; assay type: functional, cell-based; conditions: Homo sapiens
[3] = system: BJAB; assay: Induction of apoptosis of human BJAB cells as measured by DNA fragmentation at 100 uM after 72 hrs; assay type: functional
[4] = system: BJAB; assay: Antiproliferative activity against human BJAB cells after 24 hrs; assay type: functional
[5] = system: Leukemia cell; assay: Induction of apoptosis in AML cells at 100 uM after 60 hrs; assay type: functional, cell-based; conditions: Homo sapiens
[6] = system: BJAB; assay: Induction of mitochondrial permeability transition in human BJAB cells after 48 hrs; assay type: functional, cell-based
[7] = system: BJAB; assay: Loss of mitochondrial membrane potential in human BJAB cells at 100 uM; assay type: functional, cell-based

## C=C1CC[C@@H]2[C@](C)(CCC[C@]2(C)C(=O)OC)[C@H]1CCC1=CCOC1=O [PINUSOLIDE]
[1]
  Activity: 86%
[2]
  Activity: Active
[3]
  Activity: 70%
[4]
  Activity: 44%
[5]
  Activity: Active
[6]
  Activity: Dose-dependent effect
[7]
  Activity: Active

From ChEMBL document CHEMBL1146188, “Gram-scale synthesis of pinusolide and evaluation of its antileukemic potential” (2006)
